Reference: US11173146B2, “Selective activators of the intermediate conductance CA2+activated K+ channel KCa3.1 and their methods of use” (The Regents of the University of California, priority 2014, dated 2021)
“Also recorded” adds a separate entry of the source.

What was measured:
mKV3.1 = molecular target: T1, mKV3.1 (Mus musculus, UniProt P15388); assay: KV3.1 current inhibition (L929 cells); format: cell-based
T1 construct: expressed in transfected cells; host or cells: L929
Excerpt: (§1) Cells, Cell lines and Clones. HEK-293 cells stably expressing hKCa2.1, rKCa2.2 and hKCa3.1 were obtained from Khaled Houamed (University of Chicago, Ill.) in 2002 and have been maintained in the Wulff laboratory at the University of California since then. The cloning of hKCa2.3 (19 CAG repeats) and hKCa3.1 has been previously described (Wulff et al., 2000). The hKCa2.3 clone was later stably expressed in COS-7 cells at Aurora Biosciences Corp., San Diego, Calif. […]
(§2) Electrophysiology. […] For manual experiments COS-7, HEK-293 or L929 cells were trypsinized, plated onto poly-L-lysine coated coverslips and typically recorded from between 20 min and 4 h after plating. […] Free Ca^2+ concentrations were calculated with MaxChelator assuming a temperature of 25° C., a pH of 7.2 and an ionic strength of 160 mM. To reduce contaminating currents from native chloride channels in COS-7 cells, KCa2.3 currents were recorded with an internal pipette solution containing (in mM): 145 K^+ aspartate, 2 MgCl2, 10 HEPES, 10 EGTA and 7.4 CaCl2 (500 nM free Ca^2+), pH 7.2, 290-310 mOsm. […] KV2.1, Kv1.3, and KV3.1 currents were recorded in normal Ringer solution with a Ca^2+-free KF-based pipette solution as previously described (Schmitz et al., 2005). HERG (KV11.1) currents were recorded with a 2-step pulse from −80 mV first to 20 mV for 1 sec and then to −50 mV for 1 sec. […]

[1] = Plasma protein binding by ultrafiltration; format: in vitro ADME; conditions: rat plasma, 10 μM compound
Procedure: Rat plasma (500 μl) was spiked with 10 μM of compound in 1% dimethylsulfoxide and the sample loaded onto a Microcon YM-30 Centrifugal Filter (Millipore Corp., Bedford, Mass., USA) and centrifuged at 13,500 g for 30 minutes at room temperature. The retentate was collected by inverting the filter into an Eppendorf tube and spinning at 13,500 g for 15 minutes.

wild-type mice = assay: Telemetry of blood pressure and heart rate in wild-type mice; format: in vivo; conditions: for mean arterial blood pressure: FIG. 6A
Procedure: Telemetry. […] . […] . […] . […] . Maximal injection volume was ≤600 μl. […] . […] Data were analyzed using the DSI software.
. […] . The blood pressure drop was accompanied by a severe reduction of heart rate (HR) by ˜400 bpm (FIG. 6A left). To avoid fatal hypothermia or circulatory collapse, we handled these severely bradycardic mice for ˜2 h and increased RT to 34° C. As shown in FIG. 6A these maneuvers increased MAP transiently, presumably because of a sympathetic input on total peripheral resistance, but not HR and the low HR persisted over another 10 h before the mice slowly recovered (FIG. 6A left). […] However, this drop was more transient and lasted for ˜3 h.

hKCa1.1 = molecular target: T2, hKCa1.1 (Homo sapiens, UniProt Q12791); assay: KCa1.1 current modulation (QPatch); format: cell-based
T2 construct: host or cells: HEK-293
T2 sequence (Q12791 whole entry): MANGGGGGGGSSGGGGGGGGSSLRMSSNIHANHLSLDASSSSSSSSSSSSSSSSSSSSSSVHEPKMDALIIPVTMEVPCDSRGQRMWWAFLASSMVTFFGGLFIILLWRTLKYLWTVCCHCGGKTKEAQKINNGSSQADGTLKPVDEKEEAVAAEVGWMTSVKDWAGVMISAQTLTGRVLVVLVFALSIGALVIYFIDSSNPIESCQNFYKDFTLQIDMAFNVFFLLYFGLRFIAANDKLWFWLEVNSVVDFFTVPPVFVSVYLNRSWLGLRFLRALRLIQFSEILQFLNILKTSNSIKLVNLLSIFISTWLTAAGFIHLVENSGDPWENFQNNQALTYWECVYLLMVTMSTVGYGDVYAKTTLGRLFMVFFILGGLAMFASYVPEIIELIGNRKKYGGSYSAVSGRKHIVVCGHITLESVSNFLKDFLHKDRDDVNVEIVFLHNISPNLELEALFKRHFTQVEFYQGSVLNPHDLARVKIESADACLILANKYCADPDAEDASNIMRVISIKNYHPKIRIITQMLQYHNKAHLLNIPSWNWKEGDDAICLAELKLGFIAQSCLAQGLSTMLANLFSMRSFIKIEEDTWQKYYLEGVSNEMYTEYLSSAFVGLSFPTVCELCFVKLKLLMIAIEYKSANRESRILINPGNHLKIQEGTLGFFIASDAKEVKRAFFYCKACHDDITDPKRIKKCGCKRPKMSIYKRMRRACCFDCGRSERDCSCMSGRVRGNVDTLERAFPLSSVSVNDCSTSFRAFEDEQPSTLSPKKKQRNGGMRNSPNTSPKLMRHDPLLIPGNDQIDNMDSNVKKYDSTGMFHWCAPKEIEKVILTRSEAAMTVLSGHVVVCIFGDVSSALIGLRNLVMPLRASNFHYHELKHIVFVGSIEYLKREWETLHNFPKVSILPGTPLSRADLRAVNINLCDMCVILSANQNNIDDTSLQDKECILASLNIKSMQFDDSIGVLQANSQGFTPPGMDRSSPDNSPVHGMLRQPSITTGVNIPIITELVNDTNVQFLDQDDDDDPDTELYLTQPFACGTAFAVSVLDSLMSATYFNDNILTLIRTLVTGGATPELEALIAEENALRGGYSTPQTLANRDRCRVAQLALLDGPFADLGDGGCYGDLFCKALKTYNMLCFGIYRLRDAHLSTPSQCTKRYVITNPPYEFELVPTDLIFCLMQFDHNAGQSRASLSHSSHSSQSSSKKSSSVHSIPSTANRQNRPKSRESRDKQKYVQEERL

KV11.1 (hERG) = molecular target: T3, KV11.1 (hERG) (Homo sapiens, UniProt Q12809); assay: KV11.1 (hERG) current inhibition (HEK-293); format: cell-based
T3 construct: host or cells: HEK-293
T3 sequence (Q12809 whole entry): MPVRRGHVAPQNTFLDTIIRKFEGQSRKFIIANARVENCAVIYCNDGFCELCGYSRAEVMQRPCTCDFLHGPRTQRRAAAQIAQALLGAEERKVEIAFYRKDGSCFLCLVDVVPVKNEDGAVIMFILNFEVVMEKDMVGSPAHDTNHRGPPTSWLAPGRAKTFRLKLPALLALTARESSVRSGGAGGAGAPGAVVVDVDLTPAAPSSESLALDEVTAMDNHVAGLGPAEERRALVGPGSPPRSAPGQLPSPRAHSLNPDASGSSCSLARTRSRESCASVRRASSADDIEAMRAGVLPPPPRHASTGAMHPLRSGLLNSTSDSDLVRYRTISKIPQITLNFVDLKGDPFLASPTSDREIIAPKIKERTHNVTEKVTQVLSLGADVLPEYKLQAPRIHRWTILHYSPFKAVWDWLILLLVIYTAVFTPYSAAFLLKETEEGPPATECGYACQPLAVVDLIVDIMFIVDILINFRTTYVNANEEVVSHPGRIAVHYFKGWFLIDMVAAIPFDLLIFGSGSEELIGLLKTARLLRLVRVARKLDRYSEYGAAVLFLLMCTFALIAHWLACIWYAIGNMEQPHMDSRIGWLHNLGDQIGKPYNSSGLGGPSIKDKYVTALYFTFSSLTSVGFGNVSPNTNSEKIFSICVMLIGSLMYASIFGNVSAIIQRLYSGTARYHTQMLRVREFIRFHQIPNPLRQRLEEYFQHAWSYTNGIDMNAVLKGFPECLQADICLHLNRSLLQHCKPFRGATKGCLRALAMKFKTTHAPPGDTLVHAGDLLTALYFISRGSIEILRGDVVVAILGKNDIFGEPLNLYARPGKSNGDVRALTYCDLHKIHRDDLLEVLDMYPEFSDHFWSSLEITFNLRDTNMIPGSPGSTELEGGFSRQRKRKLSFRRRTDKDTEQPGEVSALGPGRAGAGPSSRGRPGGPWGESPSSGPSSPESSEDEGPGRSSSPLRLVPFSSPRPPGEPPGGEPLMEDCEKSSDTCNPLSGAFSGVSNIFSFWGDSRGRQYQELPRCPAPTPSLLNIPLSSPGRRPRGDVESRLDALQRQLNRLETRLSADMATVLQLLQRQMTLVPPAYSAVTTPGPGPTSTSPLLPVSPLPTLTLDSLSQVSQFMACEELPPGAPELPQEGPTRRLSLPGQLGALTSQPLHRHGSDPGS
Excerpt: as §1, §2

T1 sequence (P15388 whole entry): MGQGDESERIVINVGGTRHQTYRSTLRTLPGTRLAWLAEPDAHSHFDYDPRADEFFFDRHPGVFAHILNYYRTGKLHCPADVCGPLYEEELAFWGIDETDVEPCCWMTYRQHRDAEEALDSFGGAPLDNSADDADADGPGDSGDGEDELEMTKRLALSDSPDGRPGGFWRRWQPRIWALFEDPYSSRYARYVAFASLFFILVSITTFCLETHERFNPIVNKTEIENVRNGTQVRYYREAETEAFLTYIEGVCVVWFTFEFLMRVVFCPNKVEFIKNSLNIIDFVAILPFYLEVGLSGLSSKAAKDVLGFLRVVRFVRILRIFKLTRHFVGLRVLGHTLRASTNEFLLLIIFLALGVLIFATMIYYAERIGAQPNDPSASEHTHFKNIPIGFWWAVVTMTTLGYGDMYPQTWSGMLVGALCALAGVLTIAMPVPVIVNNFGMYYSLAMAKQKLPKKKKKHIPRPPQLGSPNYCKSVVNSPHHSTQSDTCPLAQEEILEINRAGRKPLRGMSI

Row | SMILES | inhibition at 50 µM (mKV3.1; at 50 μM) | fraction unbound at 30 min, 10 μM [1] | MAP (wild-type mice; 30 mg/kg i.p.) | drop in mean arterial blood pressure (MAP) (wild-type mice; 100 mg/kg i.p.) | duration of MAP drop (wild-type mice; 100 mg/kg i.p.) | heart rate (wild-type mice; 100 mg/kg i.p.) | mean arterial blood pressure (wild-type mice; 100 mg/kg i.p.) | KCa1.1 % of current (hKCa1.1; at 50 μM) | KV11.1 (hERG) % current inhibition (KV11.1 (hERG); at 50 μM) | inhibition at 25 µM (mKV3.1; at 25 μM) | change of HR (wild-type mice; 30 mg/kg i.p.) | duration of HR decrease after injection (wild-type mice; 30 mg/kg i.p.) | heart rate (wild-type mice; 30 mg/kg i.p., 2 h after injection) | reduction of heart rate (HR) (wild-type mice; 100 mg/kg i.p.) | KCa1.1 % of current (hKCa1.1; at 25 μM) | KV11.1 (hERG) % current inhibition (KV11.1 (hERG); at 25 μM)
1 | Cc1cc2nc(N)oc2c2ccccc12 [SKA-121, 5-Methylnaphtho[2,1-d]oxazol-2-amine] | 46.3 ± 16.5% | 0.19 | Neither SKA-111 nor SKA-121 caused significant changes; also recorded: did not produce significant alterations | ~20 mmHg | ~3 h | not and only moderately reduced | reduced mean arterial blood pressure | 115% of current at 50 μM (3) | 16.7 ± 9.7% |  |  |  |  |  |  | 
2 | Cc1cc2sc(N)nc2c2ccccc12 [SKA-111, 5-methylnaphtho[1,2-d]thiazol-2-amine] |  | 0.41 | Neither SKA-111 nor SKA-121 caused significant changes; also recorded: did not produce significant alterations | ~25 mmHg |  | severely reduced heart rate | reduced mean arterial blood pressure |  |  | 32.9 ± 1.3% | ~−50 bpm | ~2 h | moderately reduced heart rate | ~400 bpm | 120% of current at 25 μM (3) | 10.1 ± 7.7%
